Test results taken from patent US8741836B2, “Polypeptides” (Novo Nordisk A/S, priority 2011, dated 2014).
Starred links: 1 amine or outer side, 2 acyl side, 3 side chain; linkers in the order of their positions; H or OH if unused. Positions of bridges follow the written chain, without caps; N, C: chain ends. Residues, ends and D or L forms follow the SMILES beside them. Groups on a side chain read outwards from the residue. *: point of attachment. C20 diacid = O=C(O)CCCCCCCCCCCCCCCCCCC(=O)*; γGlu = O=C(O)[C@H](CCC(=O)[*:2])N[*:1]; AEEA = NCCOCCOCC(=O)O

Experiment: Assay (III) ThT fibrillation assay for physical stability
Type: physicochemical
Conditions: for ThT pH 4.0 lag time: pH 4.0, ThT fibrillation assay
In short: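 Freshly prepared, pH-adjusted formulations with 1 μM ThT incubated at 37 °C under 960 rpm orbital shaking (1 mm), fluorescence (ex 444, em 485 nm) read every 20 min. […] Peptide content before and after measured by reverse-phase HPLC against pramlintide standard.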

| ThT pH 4.0 lag time (physical stability in fibrillogenesis assay) [h] | ThT pH 4.0 lag time [h] | Compound |
| --- | --- | --- |
| >45 | >45 | CC[C@H](C)[C@H](NC(=O)[C@@H]1CCCN1C(=O)CNC(=O)[C@H](Cc1ccccc1)NC(=O)[C@H](CC(N)=O)NC(=O)[C@@H](NC(=O)[C@H](CO)NC(=O)[C@H](CO)NC(=O)[C@H](Cc1c[nH]cn1)NC(=O)[C@H](Cc1c[nH]cn1)NC(=O)[C@H](CC(C)C)NC(=O)[C@H](Cc1ccccc1)NC(=O)[C@H](CCC(=O)O)NC(=O)[C@H](C)NC(=O)[C@H](CC(C)C)NC(=O)[C@H](CCCNC(=N)N)NC(=O)[C@H](CCC(N)=O)NC(=O)[C@@H](NC(=O)[C@H](C)NC(=O)[C@@H]1CSSC[C@H](NC(=O)[C@H](CCCCN)NC(=O)CC[C@H](NC(=O)CCCCCCCCCCCCCCCCCCC(=O)O)C(=O)O)C(=O)N[C@@H](CC(N)=O)C(=O)N[C@@H]([C@@H](C)O)C(=O)N[C@@H](C)C(=O)N[C@@H]([C@@H](C)O)C(=O)N1)[C@@H](C)O)[C@@H](C)O)C(=O)N[C@@H](CC(C)C)C(=O)N1CCC[C@H]1C(=O)N1CCC[C@H]1C(=O)N[C@H](C(=O)N[C@@H](CC(N)=O)C(=O)N[C@H](C(=O)NCC(=O)N[C@@H](CO)C(=O)N[C@@H](CC(N)=O)C(=O)N[C@H](C(=O)N1CCC[C@H]1C(N)=O)[C@@H](C)O)C(C)C)[C@@H](C)O [Example 146, N-alpha-[(S)-4-Carboxy-4-(19-carboxynonadecanoylamino)butyryl]-[Glu14,His17,Thr21,Pro37]-pramlintide] ({C20 diacid-γGlu}-KCNTATCATQRLAEFLHHSSTNFGPILPPTNVGSNTP-NH2; disulfide 2-7) |
| >45 |  | CC[C@H](C)[C@H](NC(=O)[C@@H]1CCCN1C(=O)CNC(=O)[C@H](Cc1ccccc1)NC(=O)[C@H](CC(N)=O)NC(=O)[C@H](CCCCNC(=O)COCCOCCNC(=O)COCCOCCNC(=O)CC[C@H](NC(=O)CCCCCCCCCCCCCCCCCCC(=O)O)C(=O)O)NC(=O)[C@H](CO)NC(=O)[C@H](CO)NC(=O)[C@H](CCCNC(=N)N)NC(=O)[C@@H](NC(=O)[C@H](CC(C)C)NC(=O)[C@H](Cc1ccccc1)NC(=O)[C@H](CCC(=O)O)NC(=O)[C@H](C)NC(=O)[C@H](CC(C)C)NC(=O)[C@H](CCCNC(=N)N)NC(=O)[C@H](CCC(N)=O)NC(=O)[C@@H](NC(=O)[C@H](C)NC(=O)[C@@H]1CSSC[C@H](NC(=O)[C@@H](N)CCCCN)C(=O)N[C@@H](CC(N)=O)C(=O)N[C@@H]([C@@H](C)O)C(=O)N[C@@H](C)C(=O)N[C@@H]([C@@H](C)O)C(=O)N1)[C@@H](C)O)C(C)C)C(=O)N[C@@H](CC(C)C)C(=O)N[C@@H](CO)C(=O)N[C@@H](CCCNC(=N)N)C(=O)N[C@H](C(=O)N[C@@H](CC(N)=O)C(=O)N[C@H](C(=O)NCC(=O)N[C@@H](CO)C(=O)N[C@@H](CCCNC(=N)N)C(=O)N[C@H](C(=O)N[C@@H](Cc1ccc(O)cc1)C(N)=O)[C@@H](C)O)C(C)C)[C@@H](C)O [Example 150, N-epsilon21-[2-(2-{2-[2-(2-{2-[(S)-4-Carboxy-4-(19-carboxyheptadecanoylamino)butyrylamino]ethoxy}ethoxy)acetylamino]ethoxy}ethoxy)acetyl]-[Glu14,Arg18,Lys21,Ser28,Arg29,Arg35]-pramlintide] (H-KCNTATCATQRLAEFLVRSSK([AEEA-AEEA-γGlu-C20 diacid])NFGPILSRTNVGSRTY-NH2; disulfide 2-7) |
| >45 | >45 | CC[C@H](C)[C@H](NC(=O)[C@@H]1CCCN1C(=O)CNC(=O)[C@H](Cc1ccccc1)NC(=O)[C@H](CC(N)=O)NC(=O)[C@H](CCC(N)=O)NC(=O)[C@H](CO)NC(=O)[C@H](CO)NC(=O)[C@H](Cc1c[nH]cn1)NC(=O)[C@H](CCCNC(=N)N)NC(=O)[C@H](CC(C)C)NC(=O)[C@H](Cc1ccccc1)NC(=O)[C@H](CCC(=O)O)NC(=O)[C@H](C)NC(=O)[C@H](CC(C)C)NC(=O)[C@H](CCCNC(=N)N)NC(=O)[C@H](CCC(N)=O)NC(=O)[C@@H](NC(=O)[C@H](C)NC(=O)[C@@H]1CSSC[C@H](NC(=O)[C@H](CCC(=O)O)NC(=O)[C@H](CCCNC(=N)N)NC(=O)[C@H](CCC(=O)O)NC(=O)CC[C@H](NC(=O)CCCCCCCCCCCCCCCCCCC(=O)O)C(=O)O)C(=O)N[C@@H](CC(N)=O)C(=O)N[C@@H]([C@@H](C)O)C(=O)N[C@@H](C)C(=O)N[C@@H]([C@@H](C)O)C(=O)N1)[C@@H](C)O)C(=O)N[C@@H](CC(C)C)C(=O)N1CCC[C@H]1C(=O)N1CCC[C@H]1C(=O)N[C@H](C(=O)N[C@@H](CC(N)=O)C(=O)N[C@H](C(=O)NCC(=O)N[C@@H](CO)C(=O)N[C@@H](CC(N)=O)C(=O)N[C@H](C(=O)N1CCC[C@H]1C(N)=O)[C@@H](C)O)C(C)C)[C@@H](C)O [Example 161, N-alpha-[(S)-4-Carboxy-4-(19-carboxynonadecanoylamino)butyryl]-Glu-Arg-[Glu1,Glu14,Arg17,Gln21,Pro37]-pramlintide] ({C20 diacid-γGlu}-ERECNTATCATQRLAEFLRHSSQNFGPILPPTNVGSNTP-NH2; disulfide 4-9 (inferred)) |
| >45 | >45 | CC[C@H](C)[C@H](NC(=O)[C@@H]1CCCN1C(=O)CNC(=O)[C@H](Cc1ccccc1)NC(=O)[C@H](CC(N)=O)NC(=O)[C@H](CCC(N)=O)NC(=O)[C@H](CO)NC(=O)[C@H](CO)NC(=O)[C@H](Cc1c[nH]cn1)NC(=O)[C@H](CCCNC(=N)N)NC(=O)[C@H](CC(C)C)NC(=O)[C@H](Cc1ccccc1)NC(=O)[C@H](CCC(=O)O)NC(=O)[C@H](C)NC(=O)[C@H](CC(C)C)NC(=O)[C@H](CCCNC(=N)N)NC(=O)[C@H](CCC(N)=O)NC(=O)[C@@H](NC(=O)[C@H](C)NC(=O)[C@@H]1CSSC[C@H](NC(=O)[C@H](CCC(=O)O)NC(=O)[C@H](CCCNC(=N)N)NC(=O)[C@H](CCC(=O)O)NC(=O)CC[C@H](NC(=O)CCCCCCCCCCCCCCCCCCC(=O)O)C(=O)O)C(=O)N[C@@H](CC(N)=O)C(=O)N[C@@H]([C@@H](C)O)C(=O)N[C@@H](C)C(=O)N[C@@H]([C@@H](C)O)C(=O)N1)[C@@H](C)O)C(=O)N[C@@H](CC(C)C)C(=O)N1CCC[C@H]1C(=O)N1CCC[C@H]1C(=O)N[C@H](C(=O)N[C@@H](CC(N)=O)C(=O)N[C@H](C(=O)NCC(=O)N[C@@H](CO)C(=O)N[C@@H](CCC(N)=O)C(=O)N[C@H](C(=O)N1CCC[C@H]1C(N)=O)[C@@H](C)O)C(C)C)[C@@H](C)O [Example 162, N-alpha-[(S)-4-Carboxy-4-(19-carboxynonadecanoylamino)butyryl]-Glu-Arg-[Glu1,Glu14,Arg17,Gln21,Gln35,Pro37]-pramlintide] ({C20 diacid-γGlu}-ERECNTATCATQRLAEFLRHSSQNFGPILPPTNVGSQTP-NH2; disulfide 4-9 (inferred); C-terminus assumed) |
| >45 | >45 | CC[C@H](C)[C@H](NC(=O)[C@@H]1CCCN1C(=O)CNC(=O)[C@H](Cc1ccccc1)NC(=O)[C@H](CC(N)=O)NC(=O)[C@H](CCC(N)=O)NC(=O)[C@H](CO)NC(=O)[C@H](CO)NC(=O)[C@H](Cc1c[nH]cn1)NC(=O)[C@H](CCCNC(=N)N)NC(=O)[C@H](CC(C)C)NC(=O)[C@H](Cc1ccccc1)NC(=O)[C@H](CCC(=O)O)NC(=O)[C@H](C)NC(=O)[C@H](CC(C)C)NC(=O)[C@H](CCCNC(=N)N)NC(=O)[C@H](CCC(N)=O)NC(=O)[C@@H](NC(=O)[C@H](C)NC(=O)[C@@H]1CSSC[C@H](NC(=O)[C@H](CCC(=O)O)NC(=O)[C@H](CCCNC(=N)N)NC(=O)[C@H](CCC(=O)O)NC(=O)CC[C@H](NC(=O)CCCCCCCCCCCCCCCCCCC(=O)O)C(=O)O)C(=O)N[C@@H](CC(N)=O)C(=O)N[C@@H]([C@@H](C)O)C(=O)N[C@@H](C)C(=O)N[C@@H]([C@@H](C)O)C(=O)N1)[C@@H](C)O)C(=O)N[C@@H](CC(C)C)C(=O)N1CCC[C@H]1C(=O)N1CCC[C@H]1C(=O)N[C@H](C(=O)N[C@@H](CCC(N)=O)C(=O)N[C@H](C(=O)NCC(=O)N[C@@H](CO)C(=O)N[C@@H](CCC(N)=O)C(=O)N[C@H](C(=O)N1CCC[C@H]1C(N)=O)[C@@H](C)O)C(C)C)[C@@H](C)O [Example 163, N-alpha-[(S)-4-Carboxy-4-(19-carboxynonadecanoylamino)butyryl]-Glu-Arg-[Glu1,Glu14,Arg17,Gln21,Gln31,Gln35,Pro37]-pramlintide] ({C20 diacid-γGlu}-ERECNTATCATQRLAEFLRHSSQNFGPILPPTQVGSQTP-NH2; disulfide 4-9 (inferred)) |
| >45 | >45 | CC[C@H](C)[C@H](NC(=O)[C@@H]1CCCN1C(=O)CNC(=O)[C@H](Cc1ccccc1)NC(=O)[C@H](CCC(N)=O)NC(=O)[C@H](CCC(N)=O)NC(=O)[C@H](CO)NC(=O)[C@H](CO)NC(=O)[C@H](Cc1c[nH]cn1)NC(=O)[C@H](CCCNC(=N)N)NC(=O)[C@H](CC(C)C)NC(=O)[C@H](Cc1ccccc1)NC(=O)[C@H](CCC(=O)O)NC(=O)[C@H](C)NC(=O)[C@H](CC(C)C)NC(=O)[C@H](CCCNC(=N)N)NC(=O)[C@H](CCC(N)=O)NC(=O)[C@@H](NC(=O)[C@H](C)NC(=O)[C@@H]1CSSC[C@H](NC(=O)[C@H](CCC(=O)O)NC(=O)[C@H](CCCNC(=N)N)NC(=O)[C@H](CCC(=O)O)NC(=O)CC[C@H](NC(=O)CCCCCCCCCCCCCCCCCCC(=O)O)C(=O)O)C(=O)N[C@@H](CC(N)=O)C(=O)N[C@@H]([C@@H](C)O)C(=O)N[C@@H](C)C(=O)N[C@@H]([C@@H](C)O)C(=O)N1)[C@@H](C)O)C(=O)N[C@@H](CC(C)C)C(=O)N1CCC[C@H]1C(=O)N1CCC[C@H]1C(=O)N[C@H](C(=O)N[C@@H](CCC(N)=O)C(=O)N[C@H](C(=O)NCC(=O)N[C@@H](CO)C(=O)N[C@@H](CCC(N)=O)C(=O)N[C@H](C(=O)N1CCC[C@H]1C(N)=O)[C@@H](C)O)C(C)C)[C@@H](C)O [Example 164, N-alpha-[(S)-4-Carboxy-4-(19-carboxynonadecanoylamino)butyryl]-Glu-Arg-[Glu1,Glu14,Arg17,Gln21,Gln22,Gln31,Gln35,Pro37]-pramlintide] ({C20 diacid-γGlu}-ERECNTATCATQRLAEFLRHSSQQFGPILPPTQVGSQTP-NH2; disulfide 4-9 (inferred)) |
